Test results taken from publication PMC3950665, “Syn5 RNA polymerase synthesizes precise run-off RNA products” (Nucleic Acids Research, 2013).

Legend:
Syn5 RNA polymerase = target: T1, Syn5 RNA polymerase (Synechococcus phage Syn5, UniProt A4ZR96); experiment: run-off transcription, agarose gel and RNA yield by A260; type: biochemical; conditions: ATP, GTP, NotI-linearized pET24-Syn5RNAP, 6 mM MgCl2, pH 8.0, no KCl, 24°C
T1 construct: gene 15; His-tagged, pET24 (NdeI/NotI), expressed in E. coli BL21(DE3); single-subunit
T1 sequence (A4ZR96 1-779): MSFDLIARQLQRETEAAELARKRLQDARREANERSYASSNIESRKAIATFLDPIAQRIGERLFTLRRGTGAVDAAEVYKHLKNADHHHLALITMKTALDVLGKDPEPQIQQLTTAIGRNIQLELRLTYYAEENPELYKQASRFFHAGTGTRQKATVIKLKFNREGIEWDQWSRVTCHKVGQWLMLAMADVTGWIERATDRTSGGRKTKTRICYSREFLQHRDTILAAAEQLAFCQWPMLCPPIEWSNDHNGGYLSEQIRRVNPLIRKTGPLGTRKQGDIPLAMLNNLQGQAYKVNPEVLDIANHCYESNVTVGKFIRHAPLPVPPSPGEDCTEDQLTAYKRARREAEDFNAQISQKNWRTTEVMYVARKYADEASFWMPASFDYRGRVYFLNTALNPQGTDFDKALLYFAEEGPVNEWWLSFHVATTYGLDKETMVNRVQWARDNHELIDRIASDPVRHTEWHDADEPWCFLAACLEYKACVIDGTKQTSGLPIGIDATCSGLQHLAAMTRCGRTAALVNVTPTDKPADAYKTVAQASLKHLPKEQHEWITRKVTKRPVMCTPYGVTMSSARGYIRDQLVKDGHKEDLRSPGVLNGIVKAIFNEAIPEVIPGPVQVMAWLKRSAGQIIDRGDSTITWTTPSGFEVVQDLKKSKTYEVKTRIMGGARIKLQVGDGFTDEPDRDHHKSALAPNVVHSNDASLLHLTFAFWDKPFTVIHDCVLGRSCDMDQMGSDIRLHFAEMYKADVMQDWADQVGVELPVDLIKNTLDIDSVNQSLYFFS

T7 RNA polymerase = target: T2, T7 RNA polymerase (Escherichia phage T7, UniProt P00573); experiment: as above; type: biochemical; conditions: ATP, GTP, NotI-linearized pET24-Syn5RNAP, 6 mM MgCl2, pH 8.0, no KCl, 37°C
T2 construct: gene 1
T2 sequence (P00573 whole entry): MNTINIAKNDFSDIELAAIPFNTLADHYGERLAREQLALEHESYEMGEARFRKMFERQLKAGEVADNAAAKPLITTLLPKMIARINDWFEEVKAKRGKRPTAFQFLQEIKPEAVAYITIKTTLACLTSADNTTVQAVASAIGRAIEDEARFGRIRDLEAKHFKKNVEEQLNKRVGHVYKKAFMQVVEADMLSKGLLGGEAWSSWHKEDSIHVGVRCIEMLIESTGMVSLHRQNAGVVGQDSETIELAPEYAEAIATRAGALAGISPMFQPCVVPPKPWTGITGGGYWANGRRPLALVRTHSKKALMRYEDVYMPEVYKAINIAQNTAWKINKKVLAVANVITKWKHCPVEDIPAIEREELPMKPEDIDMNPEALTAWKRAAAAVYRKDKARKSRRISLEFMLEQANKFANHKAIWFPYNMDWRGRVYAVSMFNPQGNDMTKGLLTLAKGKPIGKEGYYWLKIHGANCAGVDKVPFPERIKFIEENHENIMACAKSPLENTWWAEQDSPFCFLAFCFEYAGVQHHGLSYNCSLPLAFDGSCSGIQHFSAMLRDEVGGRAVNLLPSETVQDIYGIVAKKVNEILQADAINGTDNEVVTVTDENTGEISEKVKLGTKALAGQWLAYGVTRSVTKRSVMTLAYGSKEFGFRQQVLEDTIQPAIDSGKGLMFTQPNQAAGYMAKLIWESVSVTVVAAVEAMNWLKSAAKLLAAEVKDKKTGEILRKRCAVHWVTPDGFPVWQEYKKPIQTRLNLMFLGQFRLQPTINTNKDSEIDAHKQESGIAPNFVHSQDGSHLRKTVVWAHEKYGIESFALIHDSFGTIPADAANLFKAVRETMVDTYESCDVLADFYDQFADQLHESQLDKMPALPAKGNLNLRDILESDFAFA

Row | Compound | run-off transcription, agarose gel and RNA yield by A260 (Syn5 RNA polymerase; replaces CTP at 600 µM, UTP) | run-off transcription, agarose gel and RNA yield by A260 (T7 RNA polymerase; replaces CTP at 600 µM, UTP) | run-off transcription, agarose gel and RNA yield by A260 (Syn5 RNA polymerase; replaces UTP at 600 µM, CTP) | run-off transcription, agarose gel and RNA yield by A260 (T7 RNA polymerase; replaces UTP at 600 µM, CTP)
1 | Cc1cn([C@@H]2O[C@H](COP(=O)(O)OP(=O)(O)OP(=O)(O)O)[C@@H](O)[C@H]2O)c(=O)nc1N [5-methylcytidine-5′-triphosphate] | the efficiency by which Syn5 RNA polymerase incorporated 5mC and Ps-U | T7 RNA polymerase also incorporates 5mC and Ps-U at comparable efficiencies |  | 
2 | O=c1[nH]cc([C@@H]2O[C@H](COP(=O)(O)OP(=O)(O)OP(=O)(O)O)[C@@H](O)[C@H]2O)c(=O)[nH]1 [pseudouridine-5′-triphosphate] |  |  | the efficiency by which Syn5 RNA polymerase incorporated 5mC and Ps-U | T7 RNA polymerase also incorporates 5mC and Ps-U at comparable efficiencies
